Measurements published in US20100003217A1, “Compounds and Pharmaceutical Compositions for the Treatment of Viral Infections” (priority 2008, published 2010).

Key:
[1] = test system: HCV genotype 1b replicon (Zluc cells); assay: HCV luciferase replicon assay; type: cell-based, hepatitis C virus; details: Hepatitis C virus, 72 h, 3 days
Experimental: The HCV luciferase replicon assay measures the ability of a test compound to inhibit HCV replication in cell culture after 3 days of treatment in a human hepatoma cell line (Huh-7) bearing the HCV genotype 1b replicon and a luciferase-neomycin phosphotransferase fusion gene. The inhibition of HCV replication was measured by quantification of luciferase protein expression. The HCV luciferase replicon was constructed by fusing a luciferase gene to the amino terminus of the neomycin phosphotransferase gene of the ZS11 HCV replicon. The ZS11 HCV replicon (Zhu Q, Guo J-T, and Seeger C, 2003) is derived from the SP1 replicon, but contains three cell culture-adapted mutations: E1202G (NS3), S22041 (NS5A), and D2254E (NS5A). These mutations allow for efficient in vitro replication. The luciferase reporter gene was amplified from the pGL4.13[luc2/SV40] vector (Promega Corp.). The replicon resulting from the luciferase-neomycin fusion (ZS11-luc) was stably-transfected into Huh-7 cells, yielding the Zluc cell line.
The luciferase replicon assay is summarized as follows: Solid white 96-well tissue culture plates (BD Falcon) were seeded with Zluc cells. Antiviral compound solutions were made up freshly in medium as 2×-concentrated stocks. Eight additional 3-fold drug dilutions were prepared from these stocks in medium for a total of 9 dilutions. At least four hours after Zluc cells were seeded, drug treatment was initiated by adding one volume of each 2×-concentrated drug dilution to one volume of cells/medium in the tissue culture plates. Cells were then incubated for 3 days at 37° C./5% CO2.
The media/compound was then removed from the plates and the ONE-glo Luciferase assay reagent (Promega) was added to each well. The assay plates were shaken for 3 minutes at room temperature and luciferase activity for each well was measured with a 1 sec read time on the Victor^3V multilabel counter using a 700 nm cut-off filter (Perkin Elmer). EC50 values were calculated from dose response curves from the resulting best-fit equations determined by Microsoft Excel and XLfit 4.1 software.

[2] = Radiochemical purity of the test article in dose formulations before and after dosing; type: physicochemical; details: PEG 200 with 5% DMSO
Experimental: Two dose formulations (50 mg/mL for the IV dose Groups 1A-C and 100 mg/mL for the PO dose Groups 2A-C) were prepared in PEG 200 containing 5% DMSO. Subsamples of the dose formulations were removed before and after the dose administration. An aliquot (10 μL) of each subsample was diluted by adding methanol (490 μL) and 20 mM ammonium formate in water (1500 μL). The diluted dose formulations were analyzed for determination of radiochemical purity by HPLC method 1.
Two dose formulations (50 mg/kg for the IV dose Groups 1A-C and 100 mg/kg for the PO dose Groups 2A-C) were prepared by the following procedure. Both formulations were prepared in PEG 200 containing 5% DMSO. The required amount of radioactive material was weighed and ground to a fine powder with a spatula. 30% of the final volume of PEG 200 and the weighed test article was added to a formulation vial while stirring under magnetic agitation to obtain a uniform formulation. The final volume was made up with PEG 200. The formulation was sonicated at room temperature for 15 minutes or longer to obtain homogenous suspension. The cycles of sonication/agitation were continued until the formulation was homogeneous. Triplicate aliquots were removed for determination of homogeneity (CV). The radioactivity concentration of the formulation was determined and specific activity was calculated.
The dose aliquots were analyzed by HPLC method 1 after diluting 10 μL of each formulation with 490 μL of methanol and 1.5 mL of the aqueous mobile phase.

GS4.1 cells = assay: Cytotoxicity of Compound 1 and RBV on GS4.1 cells using MTS assay (combination study); details: three days, 0.6× to 1.5× EC50, alone or in combination
Experimental: The readout of the assay was measured by the bioreduction of the yellow MTS tetrazolium compound to a purple formazan product. This conversion is mediated by NADPH or NADH in metabolically active cells and is therefore directly proportional to the number of live cells in a culture. Plates were setup as described above.
Cells were plated and treated with inhibitors using the drug matrix described above.
After three days of drug treatment, 20 μL of MTS was added to each well, and then plates were incubated at 37° C./5% CO2.

[3] = test system: S282T HCV replicon (184R-D2 cells); assay: microbe, parasite or virus in culture
Experimental: (§1) 1. […] Huh-7 cells were seeded into column 1 of each plate at a similar density.
(§2) 2. […] Eight additional 3-fold serial dilutions of each compound were prepared from the 2× stock in assay medium. Final drug concentrations ranged from 100 to 0.015 μM.
(§3) 3. […] This setup was run in duplicate in each 96-well plate.
(§4) 4. Cells were incubated with inhibitors for three days at 37° C./5% CO2.
(§5) 1. After three days of drug treatment, media was removed from the plates via gentle tapping and the cells were fixed to the plates with 100 μL/well of 1:1 acetone:methanol.
(§6) 2. After one minute of incubation at room temperature, plates were washed three times with 100 μL/well of ELISA wash solution and then blocked with 150 μL/well of 10% FBS-TNE.
(§7) 3. After a one hour incubation at room temperature, plates were washed three times with 100 μL/well of ELISA wash solution, and then 100 μL/well of mouse anti-hepatitis C […] mAb (1 mg/mL stock diluted 1:1,500 in 10% FBS-TNE) was added.
(§8) 4. Following 2 hours of incubation at 37° C., plates were washed three times with 100 μL/well of ELISA wash solution, and then 100 μL/well of HRP-goat anti-mouse antibody (diluted 1:4,000 in 10% FBS-TNE) was added.
(§9) 4. After a one hour incubation period at 37° C., each plate was washed three times with 100 μL/well of ELISA wash solution. Color development was then initiated with 100 μL/well of OPD solution.
(§10) 5. After a 30 minute incubation period in the dark at room temperature, reactions were stopped by adding 100 μL of 2NH2SO4 to each well.
(§11) 6. The absorbance was measured at 490 nm on a Victor^3 V 1420 multilabel counter (Perkin Elmer). The percent inhibition of HCV replicon replication was calculated for each drug using an average of the duplicate wells.

[4] = test system: wild-type HCV replicon (GS4.1 cells); assay: microbe, parasite or virus in culture
Experimental: as §1, §2, §3, §4, §5, §6, §7, §8, §9, §10, §11

## CC(C)(CO)C(=O)SCCOP(=O)(NCc1ccccc1)OC[C@H]1O[C@@H](n2cnc3c(=O)[nH]c(N)nc32)[C@](C)(O)[C@@H]1O (mixture of isomers) [Compound 1, 3-hydroxy-2,2-dimethyl-thiopropionic acid S-(2-{[(2R,3R,4R,5R)-5-(2-amino-6-oxo-1,6-dihydro-purin-9-yl)-3,4-dihydroxy-4-methyl-tetrahydro-furan-2-ylmethoxy]-benzylamino-phosphoryloxy}-ethyl) ester]
[1]
  EC50: 68 ± 0.4 nM
[2]; IV formulation, Groups 1A-C, Postdose
  Radiochemical Purity of the test article in dose formulation (total of two isomers): 99.1%
[2]; IV formulation, Groups 1A-C, Predose
  Radiochemical Purity of the test article in dose formulation (total of two isomers): 99.0%
[2]; PO formulation, Groups 2A-C, Postdose
  Radiochemical Purity of the test article in dose formulation (total of two isomers): 98.9%
[2]; PO formulation, Groups 2A-C, Predose
  Radiochemical Purity of the test article in dose formulation (total of two isomers): 98.6%
GS4.1 cells
  in vitro cytotoxicity (MTS): no evidence of in vitro cytotoxicity
[3]; 184R-D2 (S282T), EC50 in resistant line divided by EC50 in wild-type cells
  Fold shift from wild-type: 130 fold
[3]; Hepatitis C virus
  EC50: 39000 ± 10000 nM
[4]; GS4.1 (wild-type), EC50 reference
  Fold shift from wild-type: 1 fold
[4]; Hepatitis C virus
  EC50: 300 nM
